Data published in paper PMC10581251, “Antisense inhibition of RNA polymerase α subunit of Clostridioides difficile” (Microbiology Spectrum, 2023).
Converted amounts (≈) assume the structure as drawn. Like-named read-outs stand apart in the source and are kept apart here.

What was measured:
C. difficile 630 = experiment: Killing kinetics (time-kill assay); assay type: cell-based, Clostridioides difficile; conditions: 1× MIC, inoculum ~5 × 10^5 CFU/mL, triplicate
Experimental: The killing kinetics of the PNA construct was determined as described previously ([45] [–] [47]). Briefly, an overnight culture of C. difficile 630 was diluted 1:50 into fresh Mueller Hilton II broth (~10^5 CFU/mL) and added in triplicate to low adhesion microcentrifuge tubes containing either sterile water, the rpoA-TAT construct (1× MIC), or the positive controls vancomycin or fidaxomicin (1× MIC). The number of viable bacteria in each treatment group was determined by taking aliquots at 0, 4, 8, 12, 16, and 24 hours; these aliquots were then serially diluted and plated on BHIS agar plates. The plates were incubated anaerobically, and the number of colony-forming units for each treatment group was recorded the following day. The experiment was repeated twice.

[1] = tested on: toxin A and toxin B production by C. difficile 630; experiment: Toxin production inhibition (ELISA); assay type: cell-based, Clostridioides difficile; conditions: 8 hours, ELISA of supernatant, triplicate
Experimental: After the incubation period, the bacterial count in each treatment group was determined by serial dilution and plating. Toxin content in the supernatant of each treatment group was determined using an enzyme-linked immunosorbent assay (ELISA, tgcBIOMICS) kit, as per the manufacturer’s protocol.

C. difficile ATCC 630 [2] = experiment: Effect of pH on MIC/MBC, C. difficile ATCC 630; assay type: cell-based, Clostridioides difficile; conditions: for MBC: read-out: MBC; for MIC: read-out: MIC
Experimental: (§1) The susceptibility of C. difficile isolates to the CPP-PNA conjugates or to the CPP alone was determined in vitro as described before with slight modifications ([43] [–] [45]). Briefly, the CPP-PNA conjugates, the CPP alone, and the antibiotics vancomycin and fidaxomicin were added in triplicate to the first row of ultra-low adhesion 96-well plates (Corning Inc., Corning, NY). A suspension of C. difficile equivalent to 0.5 McFarland solution was added to Mueller-Hilton II broth, which was then added to the ultra-low adhesion plate and then serially diluted. The plates were incubated anaerobically for 48 hours at 37°C. The minimum inhibitory concentration was defined as the lowest concentration of the CPP-PNA conjugate that could inhibit bacterial growth when observed visually.
(§2) The MIC and MBC experiments were repeated twice.
(§3) The susceptibility of C. difficile (ATCC 630 and ATCC BAA 1870) to the rpoA-TAT conjugate was evaluated over a pH range of 6 to 9 using the broth microdilution method ([43], [46] [–] [48]). The desired pH for susceptibility testing was attained by the addition of either 0.1 N HCL or 1 N NaOH to the media. The experiment was repeated twice.

[3] = tested on: Bacteroides fragilis HM 714; experiment: MIC gut microflora, Bacteroides fragilis; assay type: cell-based; conditions: broth microdilution, supplemented BHIS broth, 48 hours, read-out: MIC
Experimental: (§4) The susceptibility of gut microflora strains to the rpoA-TAT conjugate was determined using the broth microdilution assay, as described above. Briefly, bacterial suspensions of Bifidobacterium sp. and Bacteroides sp., in supplemented BHIS broth, and Lactobacilli strains, in MRS broth, were added to ultra-low adhesion 96-well plates and serially diluted. The MIC was recorded after 48 hours.

[4] = tested on: Lactobacillus brevis ATCC 14869; experiment: MIC gut microflora, Lactobacillus brevis; assay type: cell-based; conditions: broth microdilution, MRS broth, 48 hours, read-out: MIC
Experimental: as §4

C. difficile 1082 = experiment: MIC/MBC broth microdilution, C. difficile 1082; assay type: cell-based, Clostridioides difficile; conditions: for MIC: broth microdilution, anaerobic 48 hours 37°C, visual, read-out: MIC; for MBC: plated on BHIS agar, read-out: MBC
Experimental: as §1, §2

C. difficile ATCC 630 [5] = experiment: microbe, parasite or virus in culture
Experimental: as §1, §2

C. difficile ATCC 43255 = experiment: MIC/MBC broth microdilution, C. difficile ATCC 43255; assay type: cell-based, Clostridioides difficile; conditions: for MIC: broth microdilution, anaerobic 48 hours 37°C, visual, read-out: MIC; for MBC: plated on BHIS agar, read-out: MBC
Experimental: as §1, §2

[6] = tested on: spore formation by C. difficile ATCC 630; experiment: Spore formation inhibition; assay type: cell-based, Clostridioides difficile; conditions: 0.5× MIC, 12 hours, compared to negative control (no treatment); for log reduction in the spore count: triplicate
Experimental: After the incubation period, the total bacterial count for each treatment group was determined by serial dilution and plating on BHIS agar plates supplemented with 0.1% taurocholic acid. To determine the presence of spores, the remaining bacterial culture from each treatment group was heated at 65°C for 30 minutes to ensure all vegetative cells were killed. The bacterial culture from each treatment group was then serially diluted and plated on BHIS agar plates supplemented with 0.1% taurocholic acid. The plates were incubated overnight, and the CFU counts for each treatment group were determined the following day.

C. difficile 1079 = experiment: MIC/MBC broth microdilution, C. difficile 1079; assay type: cell-based, Clostridioides difficile; conditions: for MIC: broth microdilution, anaerobic 48 hours 37°C, visual, read-out: MIC; for MBC: plated on BHIS agar, read-out: MBC
Experimental: as §1, §2

[7] = tested on: Lactobacillus gasseri ATCC 19992; experiment: MIC gut microflora, Lactobacillus gasseri; assay type: cell-based; conditions: broth microdilution, MRS broth, 48 hours, read-out: MIC
Experimental: as §4

[8] = tested on: Bifidobacterium longum subsp. longum HM 846; experiment: MIC gut microflora, Bifidobacterium longum; assay type: cell-based
Experimental: as §4

[9] = tested on: C. difficile ATCC BAA 1870; experiment: Effect of pH on MIC/MBC, C. difficile ATCC BAA 1870; assay type: cell-based, Clostridioides difficile; conditions: for MBC: read-out: MBC; for MIC: read-out: MIC
Experimental: as §1, §2, §3

[10] = tested on: Lactobacillus rhamnosus ATCC 53103; experiment: MIC gut microflora, Lactobacillus rhamnosus; assay type: cell-based; conditions: broth microdilution, MRS broth, 48 hours, read-out: MIC
Experimental: as §4

[11] = Clostridioides difficile, ATCC630, pH 6
[12] = Clostridioides difficile, ATCC630, pH 7
[13] = Clostridioides difficile, ATCC630, pH 8
[14] = Clostridioides difficile, ATCC43255
[15] = broth microdilution, supplemented BHIS broth, 48 hours
[16] = Clostridioides difficile, BAA1870, pH 6
[17] = Clostridioides difficile, BAA1870, pH 7
[18] = Clostridioides difficile, BAA1870, pH 8

## CCc1c(Cl)c(O)c(Cl)c(O)c1C(=O)O[C@H]1[C@H](O)[C@H](OC)[C@H](OC/C2=C\C=C\C[C@H](O)/C(C)=C/[C@H](CC)[C@@H](O[C@@H]3OC(C)(C)[C@@H](OC(=O)C(C)C)[C@H](O)[C@@H]3O)/C(C)=C/C(C)=C/C[C@@H]([C@@H](C)O)OC2=O)O[C@@H]1C [Fidaxomicin, fidaxomicin]
C. difficile 630
  time to eradication of bacteria (below the limit of detection, 250 CFU/mL): ≤ 12 h
[1]; 0.125× MIC
  reduction of C. difficile toxin production: 45.7%
[1]; 0.25× MIC
  reduction of C. difficile toxin production: 50.6%
[1]; 0.5× MIC
  reduction of C. difficile toxin production: 54%
C. difficile ATCC 630 [2]; [11]
  MBC: 1 µM (≈ 1.06 µg/mL)
  MIC: 0.5 µM (≈ 0.529 µg/mL)
C. difficile ATCC 630 [2]; [12]
  MBC: 1 µM (≈ 1.06 µg/mL)
  MIC: 0.5 µM (≈ 0.529 µg/mL)
C. difficile ATCC 630 [2]; [13]
  MBC: 4 µM (≈ 4.23 µg/mL)
  MIC: 1 µM (≈ 1.06 µg/mL)
[3]; Bacteroides fragilis, HM714
  MIC: > 2 µM
[4]; Levilactobacillus brevis, ATCC14869
  MIC: > 2 µM
C. difficile 1082; Clostridioides difficile, 1082
  MIC: 2 µM (≈ 2.12 µg/mL)
  MBC: 2 µM (≈ 2.12 µg/mL)
C. difficile ATCC 630 [5]; Clostridioides difficile, ATCC630
  MBC: 0.5 µM (≈ 0.529 µg/mL)
C. difficile ATCC 630 [5]; Clostridioides difficile, ATCC630, 48 h
  MIC: 0.5 µM (≈ 0.529 µg/mL)
C. difficile ATCC 43255; [14]
  MIC: 0.5 µM (≈ 0.529 µg/mL)
  MBC: 0.5 µM (≈ 0.529 µg/mL)
[6]
  reduction in the spore count: 99.9%
  log reduction in the spore count: 3.44 log
C. difficile 1079; Clostridioides difficile, 1079
  MIC: 2 µM (≈ 2.12 µg/mL)
  MBC: 2 µM (≈ 2.12 µg/mL)
[7]; Lactobacillus gasseri, ATCC19992
  MIC: > 2 µM
[8]; Bifidobacterium longum, 48 h
  MIC: 0.125 µM (≈ 0.132 µg/mL)
[8]; [15]
  MIC: 0.125 µM (≈ 0.132 µg/mL)
[9]; [16]
  MBC: 2 µM (≈ 2.12 µg/mL)
  MIC: 1 µM (≈ 1.06 µg/mL)
[9]; [17]
  MBC: 2 µM (≈ 2.12 µg/mL)
  MIC: 1 µM (≈ 1.06 µg/mL)
[9]; [18]
  MBC: 4 µM (≈ 4.23 µg/mL)
  MIC: 1 µM (≈ 1.06 µg/mL)
[10]; Lacticaseibacillus rhamnosus, ATCC53103
  MIC: > 2 µM

## GRKKKRRQRRRYK-O-CATGGACAAAAC-NH2 [rpoA-TAT, PNA oligomer antisense to C. difficile rpoA covalently conjugated to the TAT cell penetrating peptide]
C. difficile 630
  time to eradication of bacteria (below the limit of detection, 250 CFU/mL): ≤ 8 h
[1]; 0.125× MIC
  reduction of C. difficile toxin production: 34.9%
[1]; 0.25× MIC
  reduction of C. difficile toxin production: 54.3%
[1]; 0.5× MIC
  reduction of C. difficile toxin production: 55.2%
C. difficile ATCC 630 [2]; pH 6
  MBC: 8 µM
  MIC: 8 µM
C. difficile ATCC 630 [2]; pH 7
  MBC: 8 µM
  MIC: 8 µM
C. difficile ATCC 630 [2]; pH 8
  MBC: 8 µM
  MIC: 8 µM
[3]
  MIC: >32 µM
[4]
  MIC: >32 µM
C. difficile 1082
  MIC: 4 µM
  MBC: 4 µM
C. difficile ATCC 630 [5]; aliquots of wells without growth plated on BHIS agar, repeated twice
  MBC: 8 µM
C. difficile ATCC 630 [5]; broth microdilution, Mueller-Hilton II broth, anaerobic 48 hours 37°C, visual, triplicate, repeated twice
  MIC: 8 µM
C. difficile ATCC 43255
  MIC: 8 µM
  MBC: 8 µM
[6]
  reduction in the spore count: 99.9%
  log reduction in the spore count: 3.44 log
C. difficile 1079
  MIC: 8 µM
  MBC: 8 µM
[7]
  MIC: >32 µM
[8]; [15]
  MIC: >32 µM
[9]; pH 6
  MBC: 8 µM
  MIC: 8 µM
[9]; pH 7
  MBC: 8 µM
  MIC: 8 µM
[10]
  MIC: >32 µM
